This is an account of results in patent publication US20190343874A1, “USE OF NICKEL COMPLEX IN PREPARING DRUG FOR RELIEVING INFLAMMATION” (NATIONAL TAIWAN NORMAL UNIVERSITY, priority 2018, published 2019).

Data set [1] has as its system bladder tissue of adult female Wistar rats. Put plainly: bladder tissue slices and perfusion unit after para-phenylenediamine. Format: in vivo. As to conditions: PPD i.p. for 4 weeks vs control group. The protocol:
(§1) In the current embodiment, 24 adult female Wistar rats were adopted as the experimental animals in the animal experiments and were randomly divided into four groups to be treated with different intraperitoneal injections. Referring to Table 1, the four groups are as follows: 1) the control group: 1 mL/day saline solution for 4 weeks; 2) the first experimental group: PPD (60 […]) for 4 weeks; 3) the second group: PPD ([…]) for 4 weeks and a drug (1.5 mg/kg/day) prepared from WCT003 for the last 2 weeks of; 4) the third experimental group: PPD (60 μg/kg/day) for 4 weeks and a drug (1.5 mg/kg/day) prepared from WCT006 for the last 2 weeks.
It could be known from the experiment data that para-phenylenediamine induces inflammatory response and ischemia in the bladders of the rats in the first experimental group.

The test system of data set [2] is reactive oxygen species in the bladder cells. Put plainly: reactive oxygen species count in the bladder (in vivo). Further details: species or system Wistar rats. As to conditions: PPD alone i.p. for 4 weeks, FIG. 9 and 10. How it is done:
as §1
FIG. 10 show the analytical data of the reactive oxygen species count in vivo for each group of rats. It could be seen from FIG. 9 and FIG. 10 that the reactive oxygen species count in the bladder cells of the first experimental group of rats is much higher than that of the control group.

In data set [3] the test system is bladder of adult female Wistar rats. Put plainly: intravesical pressure measurement in para-phenylenediamine-treated rats. Format: in vivo. The protocol:
as §1
Then, each group of the rats were anesthetized with urethane (1.2 g/kg) via percutaneously injection, and a catheter was placed in a left femoral artery of each of the rats to measure arterial pressure (ABP). Meanwhile, intravesical pressure of the rats were also measured to obtain the parameters such as bladder intercontraction interval (ICI), urination time (MT), maximum urination pressure (MVP), contraction amplitude (A=MVP-BP), urination pressure threshold (PT), etc., as shown in FIG. 3 to FIG. 5.

Data set [4] relates to adult female Wistar rats. Put plainly: metabolic cage sample data. Format: in vivo. The protocol: as §1
Referring to Table 2, which lists the sample data collected from the rats of the control group and the first experimental group where were placed in the metabolic cage: […]

For data set [5], the system named is reactive oxygen species. Put plainly: luminol and lucigenin chemiluminescence of blood or urine samples (in vitro). Also noted: species or system Wistar rats. The note with it: PPD i.p. for 4 weeks. How it is done: To determine the effect of the drug prepared from the nickel complex WCt003 and WCt006 on eliminating reactive oxygen species, a luminol and lucigenin chemiluminescence (CL) method was utilized. The method includes the following steps: 0.2 ml sample of blood or urine was mixed with 0.5 ml of 1 mmol/L lucigenin or 0.2 mmol/L luminol, and then the mixture was analyzed with a chemiluminescence analysis system, wherein, the recorded signals were corresponding to the hydrogen peroxide (H2O2) and hypochlorous acid (HOCl) count in the luminol method, while the recorded signals were corresponding to the superoxide anion (O2^−) count in the lucigenin method.

The mark [6] stands for this setting: first experimental group: PPD alone i.p. for 4 weeks.
Where [7] appears, read: first experimental group: PPD i.p. for 4 weeks.

With `Nc1ccc(N)cc1` [para-phenylenediamine], in data set [1] (FIG. 1), the “mast cell in the bladder” value is given as “significant increase” and the “neutrophil infiltration in the bladder tissue” value is “have neutrophil infiltration in the bladder tissue”. The perfusion unit entry in data set [1] (FIG. 2) is “reduced”. Moreover, in data set [2], the “reactive oxygen species count in the bladder cells vs control group” value is “much higher”. In data set [3] (PPD i.p., in words, Table 3 and FIG. 6), the “bladder intercontraction interval vs control group” value is given as “significantly shorter”. Also, in data set [3] (setting [6]), the “A (contraction amplitude)” value amounted to 20.3 ± 0.9 mmHg, the “ICI (bladder intercontraction interval)” value came out at 35.8 ± 6.0 s and the “MVP (maximum urination pressure)” value stood at 30.6 ± 0.9 mmHg. In addition, in data set [4] (PPD i.p. for 4 weeks, in words), the “stool vs control group” value is “more”, the “urinary frequency vs control group” value is listed as “more frequent” and the “urine vs control group” value is listed as “more”. In data set [4] (setting [7]), the “Body Weight” value came to 277.8 ± 3.8 g, the Food came to 22.9 ± 4.4 g, the Stool came to 35.7 ± 8.1 g and the “Urinary frequency (24 hours)” value stood at 53.1 ± 13.3. Further, in data set [4] (setting [7]), the Urine came out at 32.7 ± 7.5 mg and the Water intake was 57.7 ± 7.2 mL. Besides, in data set [5] (blood, lucigenin, FIG. 8), the “O2− count in the blood sample vs control group” value is recorded as “higher”. Moreover, the “H2O2 and HOCl counts in the blood sample vs control group” value in data set [5] (blood, luminol, FIG. 8) is reported as “significantly higher”. Besides, the “reactive oxygen species count in urine samples vs control group” value in data set [5] (urine, FIG. 7) was “no significant difference”.
